Test results reported in ChEMBL document CHEMBL1201862, “PubChem BioAssay data set” (2004).
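1) Cells in 96-well plates. 2) Compound, 48 h, 5 concentrations. 3) Linear interpolation between surrounding doses. 4) Unreached endpoint = highest concentration. GI50: concentration for 50% inhibition of growth.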 Calls of active or inactive are those of the source. Cut-off read from the data, not from the text of the source: active = GI50 up to about 1.1 µM and inactive = higher.

Tests used:
Assay in all cases: inhibition of tumour cell growth, NCI panel, 48 h
[1] = system: SK-MEL-5
[2] = system: ACHN
[3] = system: CAKI-1
[4] = system: TK-10
[5] = system: DU-145
[6] = system: RPMI-8226
[7] = system: HL-60
[8] = system: U-251
[9] = system: NCI-H522
[10] = system: UACC-62
[11] = system: NCI-H23
[12] = system: Malme-3M
[13] = system: PC-3
[14] = system: OVCAR-4
[15] = system: HOP-92
[16] = system: OVCAR-3
[17] = system: OVCAR-5
[18] = system: SF-295
[19] = system: BT-549
[20] = system: CCRF-CEM
[21] = system: NCI/ADR-RES
[22] = system: HCT-116
[23] = system: SK-OV-3
[24] = system: COLO 205
[25] = system: MDA-MB-231
[26] = system: SN12C
[27] = system: LOX IMVI
[28] = system: A549
[29] = system: SF-539
[30] = system: 786-0
[31] = system: SR
[32] = system: SW-620
[33] = system: KM12
[34] = system: UACC-257
[35] = system: SK-MEL-2
[36] = system: MDA-MB-435
[37] = system: A498
[38] = system: IGROV-1
[39] = system: SNB-75
[40] = system: MOLT-4
[41] = system: RXF 393
[42] = system: M14
[43] = system: K562
[44] = system: EKVX
[45] = system: MCF7
[46] = system: NCI-H226
[47] = system: MDA-N
[48] = system: SF-268
[49] = system: OVCAR-8
[50] = system: HT-29
[51] = system: UO-31
[52] = system: HCT-15
[53] = system: T47D
[54] = system: SNB-19
[55] = system: HOP-62
[56] = system: SK-MEL-28
[57] = system: HCC 2998

## C[C@]12CC[C@H](O)CC1=CC[C@@H]1[C@@H]2CC[C@]2(C)C(=N/N)/C(=N\O)C[C@@H]12
[1]
  GI50: > 100 µM (inactive)
[2]
  GI50: > 100 µM (inactive)
[3]
  GI50: > 100 µM (inactive)
[4]
  GI50: > 100 µM (inactive)
[5]
  GI50: > 100 µM (inactive)
[6]
  GI50: > 100 µM (inactive)
[7]
  GI50: 9.91 µM (inactive)
[8]
  GI50: 21.6 µM (inactive)
[9]
  GI50: 31.7 µM (inactive)
[10]
  GI50: 58.5 µM (inactive)
[11]
  GI50: > 100 µM (inactive)
[12]
  GI50: 27.1 µM (inactive)
[13]
  GI50: > 100 µM (inactive)
[14]
  GI50: 57.4 µM (inactive)
[15]
  GI50: 2.42 µM (inactive)
[16]
  GI50: > 100 µM (inactive)
[17]
  GI50: > 100 µM (inactive)
[18]
  GI50: 35.1 µM (inactive)
[19]
  GI50: 32.8 µM (inactive)
[20]
  GI50: 44.2 µM (inactive)
[21]
  GI50: > 100 µM (inactive)
[22]
  GI50: 43.4 µM (inactive)
[23]
  GI50: 76 µM (inactive)
[24]
  GI50: 40 µM (inactive)
[25]
  GI50: 32.7 µM (inactive)
[26]
  GI50: > 100 µM (inactive)
[27]
  GI50: 57 µM (inactive)
[28]
  GI50: > 100 µM (inactive)
[29]
  GI50: > 100 µM (inactive)
[30]
  GI50: 50.7 µM (inactive)
[31]
  GI50: 7.78 µM (inactive)
[32]
  GI50: 60 µM (inactive)
[33]
  GI50: 38.2 µM (inactive)
[34]
  GI50: > 100 µM (inactive)
[35]
  GI50: 88.5 µM (inactive)
[36]
  GI50: 2.12 µM (inactive)
[37]
  GI50: 16.7 µM (inactive)
[38]
  GI50: 21 µM (inactive)
[39]
  GI50: 7.5 µM (inactive)
[40]
  GI50: 16.4 µM (inactive)
[41]
  GI50: > 100 µM (inactive)
[42]
  GI50: > 100 µM (inactive)
[43]
  GI50: 14.5 µM (inactive)
[44]
  GI50: 74.1 µM (inactive)
[45]
  GI50: > 100 µM (inactive)
[46]
  GI50: 74.3 µM (inactive)
[47]
  GI50: 11.9 µM (inactive)
[48]
  GI50: 59.7 µM (inactive)
[49]
  GI50: > 100 µM (inactive)
[50]
  GI50: 36 µM (inactive)
[51]
  GI50: > 100 µM (inactive)
[52]
  GI50: 3.94 µM
[53]
  GI50: > 100 µM (inactive)
[54]
  GI50: 35.2 µM (inactive)
[55]
  GI50: 45.9 µM (inactive)

## COC(=O)c1ccc2cc(O)ccc2c1
[1]
  GI50: 56.4 µM (inactive)
[2]
  GI50: 76.6 µM (inactive)
[3]
  GI50: > 100 µM (inactive)
[4]
  GI50: > 100 µM (inactive)
[5]
  GI50: > 100 µM (inactive)
[6]
  GI50: 53.5 µM (inactive)
[56]
  GI50: > 100 µM (inactive)
[8]
  GI50: 87.7 µM (inactive)
[9]
  GI50: 58.6 µM (inactive)
[10]
  GI50: > 100 µM (inactive)
[11]
  GI50: 72.3 µM (inactive)
[12]
  GI50: > 100 µM (inactive)
[13]
  GI50: > 100 µM (inactive)
[14]
  GI50: > 100 µM (inactive)
[15]
  GI50: > 100 µM (inactive)
[16]
  GI50: > 100 µM (inactive)
[17]
  GI50: > 100 µM (inactive)
[18]
  GI50: 53.5 µM (inactive)
[19]
  GI50: 79.6 µM (inactive)
[20]
  GI50: > 100 µM (inactive)
[21]
  GI50: 47.9 µM (inactive)
[22]
  GI50: 68.7 µM (inactive)
[23]
  GI50: > 100 µM (inactive)
[24]
  GI50: > 100 µM (inactive)
[25]
  GI50: > 100 µM (inactive)
[26]
  GI50: > 100 µM (inactive)
[27]
  GI50: 55.6 µM (inactive)
[28]
  GI50: 69.2 µM (inactive)
[29]
  GI50: 89.3 µM (inactive)
[30]
  GI50: 89.9 µM (inactive)
[31]
  GI50: 22 µM (inactive)
[32]
  GI50: > 100 µM (inactive)
[33]
  GI50: 39.9 µM (inactive)
[34]
  GI50: > 100 µM (inactive)
[35]
  GI50: > 100 µM (inactive)
[36]
  GI50: 96.6 µM (inactive)
[37]
  GI50: 38.5 µM (inactive)
[38]
  GI50: 75.7 µM (inactive)
[40]
  GI50: 25.2 µM (inactive)
[41]
  GI50: > 100 µM (inactive)
[42]
  GI50: 72.1 µM (inactive)
[57]
  GI50: > 100 µM (inactive)
[43]
  GI50: 41.5 µM (inactive)
[44]
  GI50: 55.8 µM (inactive)
[45]
  GI50: 55 µM (inactive)
[46]
  GI50: 60.1 µM (inactive)
[47]
  GI50: 78.9 µM (inactive)
[48]
  GI50: 21.5 µM (inactive)
[49]
  GI50: 53.2 µM (inactive)
[50]
  GI50: 47.6 µM (inactive)
[51]
  GI50: 32.4 µM (inactive)
[52]
  GI50: > 100 µM
[53]
  GI50: 56.4 µM (inactive)
[54]
  GI50: 79.8 µM (inactive)
[55]
  GI50: > 100 µM (inactive)
